Values of other authors in publication PMC4546328, “Effects of Inhibiting Dipeptidyl Peptidase-4 (DPP4) in Cows with Subclinical Ketosis” (PLoS ONE, 2015).

Set-up: method as in earlier work
Settings: prescribing information; primarily small increase of neutrophil granulocytes counts

effect on WBC: slight increase in WBC
SMILES: N[C@@H](CC(=O)N1CCn2c(nnc2C(F)(F)F)C1)Cc1cc(F)c(F)cc1F [sitagliptin]
